Experimental data as given in US7833531B2, “Method for treating insulin sensitivity by long-acting GLP-1 receptor mimetibody agonists” (Centocor, Inc., priority 2006, dated 2010).
Read-outs that look alike come from different tables or passages of the source. Where no end group is shown, it is not given here.

How the values were obtained:
[1] = test system: db/db mice; test: Blood glucose lowering in db/db mice; assay type: in vivo; settings: six week old db/db mice fasted two hours, intravenous; 0.5-4 hours post-dosing; MMB dose 100-fold lower than GLP-1 peptide dose
Experimental: GLP-1 MMB Lowers Glucose Level in db/db Mice. […] Blood glucose was monitored 0.5, 1, 2, 3, and 4 hours post-dosing.

[2] = test system: diabetic rats; settings: cited from earlier work
[3] = molecular target: T1, GLP-1R (Rattus norvegicus, UniProt P32301); test: cAMP assay in Rinm cells; assay type: cell-based; settings: similar experiment
T1 construct: endogenous in cells; host or cells: Rinm cells
T1 sequence (P32301 22-463): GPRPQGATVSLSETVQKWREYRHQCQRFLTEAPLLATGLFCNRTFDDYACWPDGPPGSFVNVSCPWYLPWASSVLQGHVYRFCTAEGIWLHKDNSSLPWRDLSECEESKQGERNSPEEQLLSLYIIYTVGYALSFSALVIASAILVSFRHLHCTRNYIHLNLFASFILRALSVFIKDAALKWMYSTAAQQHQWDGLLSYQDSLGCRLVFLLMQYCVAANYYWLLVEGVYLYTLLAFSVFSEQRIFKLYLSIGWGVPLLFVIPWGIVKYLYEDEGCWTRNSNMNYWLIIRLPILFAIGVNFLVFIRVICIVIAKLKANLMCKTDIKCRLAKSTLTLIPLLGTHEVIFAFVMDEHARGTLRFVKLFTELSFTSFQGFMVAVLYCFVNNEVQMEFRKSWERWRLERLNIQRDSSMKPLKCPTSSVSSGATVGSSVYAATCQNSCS
Experimental: cAMP Assay. GLP-1 binds to its receptor, a G-protein coupled receptor, resulting in a dose-dependent increase in the signaling molecule, 3′,5′-cyclic AMP (cAMP). cAMP can be measured with an in vitro assay in cells expressing the GLP-1R (Applied Biosystems). […] The cells were lysed, and the amount of cAMP was determined using a competitive assay that employs an alkaline-phosphatase labeled cAMP conjugate and a chemiluminescent substrate (Tropix® CDPD®).

[4] = cited from earlier work
[5] = cited from earlier work; remark: listed apart in the source

In the case of `CC[C@H](C)[C@H](NC(=O)[C@H](Cc1ccccc1)NC(=O)[C@H](CCC(=O)O)NC(=O)[C@H](CCCCN)NC(=O)[C@H](C)NC(=O)[C@H](C)NC(=O)[C@H](CCC(N)=O)NC(=O)CNC(=O)[C@H](CCC(=O)O)NC(=O)[C@H](CC(C)C)NC(=O)[C@H](Cc1ccc(O)cc1)NC(=O)[C@H](CO)NC(=O)[C@H](CO)NC(=O)[C@@H](NC(=O)[C@H](CC(=O)O)NC(=O)[C@H](CO)NC(=O)[C@@H](NC(=O)[C@H](Cc1ccccc1)NC(=O)[C@@H](NC(=O)CNC(=O)[C@H](CCC(=O)O)NC(=O)[C@H](C)NC(=O)[C@@H](N)Cc1c[nH]cn1)[C@@H](C)O)[C@@H](C)O)C(C)C)C(=O)N[C@@H](C)C(=O)N[C@@H](Cc1c[nH]c2ccccc12)C(=O)N[C@@H](CC(C)C)C(=O)N[C@H](C(=O)N[C@@H](CCCCN)C(=O)NCC(=O)N[C@@H](CCCNC(=N)N)C(N)=O)C(C)C` [GLP-1 peptide], the blood glucose [1] is listed as “lowered blood glucose at 30 minutes, but by 60 minutes, the blood glucose began to increase again”, the insulin sensitivity ([2]; acute administration) is listed as “not acute” and the insulin sensitivity ([2]; chronic administration) is listed as “significant improvement in insulin sensitivity”.

With “GLP-1 (A2G) MMB in IgG4 scaffold: mimetibody with DPP-IV resistant GLP-1 variant GLP-1 (A2G) in IgG4 scaffold (HGEGTFTSDVSSYLEGQAAKEFIAWLVKGRG; also: in IgG4 mimetibody scaffold)” the “cAMP levels in Rinm cells relative to wt GLP-1 MMB in IgG4 scaffold” value [3] was “significantly higher level than wt GLP-1 MMB in IgG4 scaffold”.

For “GLP-1 (A2S) MMB in IgG4 scaffold: mimetibody with DPP-IV resistant GLP-1 variant GLP-1 (A2S) in IgG4 scaffold (HSEGTFTSDVSSYLEGQAAKEFIAWLVKGRG; also: in IgG4 mimetibody scaffold)”, the “cAMP levels in Rinm cells relative to wt GLP-1 MMB in IgG4 scaffold” value [3] was “significantly higher level than wt GLP-1 MMB in IgG4 scaffold”.

In the case of “Byetta™: recently marketed GLP-1 analogue developed by Amylin and Eli Lilly, first identified in the saliva of the gila monster lizard”, the “in vivo half life” value [4] is given as “less than 30 minutes”, the “sustained decrease in body weight” value ([5]; during the course of the study) is given as 5-10 pounds and the HbAlc levels lowered ([5]; following 82 weeks of treatment) is given as “approximately 1%”.
